The IC50 is the midpoint of a concentration-inhibition curve. A low value points to higher potency. A word on the half-life: it is the time in which the quantity being followed falls by half. As usually defined, the clearance is the rate of elimination divided by the concentration. Read a low clearance as a low capacity for elimination. A word on the Tmax: it is the time from dosing to the highest level. A word on the solubility: it is the dissolved amount per volume that the medium holds. Lower therefore signals a poorly soluble substance. As a reminder, the Cmax is the maximum level reached in the sampled fluid or tissue. The bioavailability is the share of a dose that reaches the circulation, judged against a reference dose that is usually intravenous. Low readings indicate little systemic uptake, high ones much systemic uptake. What is called AUC(0-inf) is total exposure, with the tail of the curve extrapolated. Lower therefore signals less exposure.

Structures are written as SMILES. In brackets after ≈: the same amount, converted by molar mass. Some results are limits rather than exact numbers.

Here are results for 4 compounds from ChEMBL document CHEMBL5335838, “The medicinal chemistry evolution of antibody-drug conjugates” (RSC Med Chem, 2024).

One series has as its target Cytochrome P450 3A4 (Homo sapiens, UniProt P08684). Briefly: Inhibition of CYP3A4 (unknown origin). It counts as ADME.
A short description of series [1]: Half life in CD1 mouse at 10 mg/kg, po. It counts as ADME, organism-based. Particulars: in vivo.
A short description of series [2]: Half life in Sprague-Dawley rat at 0.5 mg/kg, iv. The following applies: in vivo. It counts as ADME, organism-based.
A short description of series [3]: Volume of distribution at steady state in CD1 mouse at 3 mg/kg, iv. It counts as ADME, organism-based. The following applies: in vivo, read-out: Vdss.
Series [4] in a line: Plasma clearance in Sprague-Dawley rat at 0.5 mg/kg, iv. It counts as ADME, organism-based. Particulars: in vivo.
Series [5] can be described thus: Half life in CD1 mouse at 3 mg/kg, iv. It counts as ADME, organism-based. The following applies: in vivo.
Series [6] is described as follows: Tmax in CD1 mouse at 10 mg/kg, po. Particulars: in vivo. It counts as ADME, organism-based.
Series [7] can be described thus: AUC in CD1 mouse at 3 mg/kg, iv. It counts as ADME, organism-based. Further details: dose 3 mg/kg, route iv. Particulars: in vivo.
Series [8] can be described thus: Plasma clearance in CD1 mouse at 3 mg/kg, iv. It counts as ADME, organism-based. Particulars: in vivo.
For another series, the target named is T1, Cytochrome P450 1A2 (Homo sapiens, UniProt P05177).
T1 sequence (P05177 whole entry): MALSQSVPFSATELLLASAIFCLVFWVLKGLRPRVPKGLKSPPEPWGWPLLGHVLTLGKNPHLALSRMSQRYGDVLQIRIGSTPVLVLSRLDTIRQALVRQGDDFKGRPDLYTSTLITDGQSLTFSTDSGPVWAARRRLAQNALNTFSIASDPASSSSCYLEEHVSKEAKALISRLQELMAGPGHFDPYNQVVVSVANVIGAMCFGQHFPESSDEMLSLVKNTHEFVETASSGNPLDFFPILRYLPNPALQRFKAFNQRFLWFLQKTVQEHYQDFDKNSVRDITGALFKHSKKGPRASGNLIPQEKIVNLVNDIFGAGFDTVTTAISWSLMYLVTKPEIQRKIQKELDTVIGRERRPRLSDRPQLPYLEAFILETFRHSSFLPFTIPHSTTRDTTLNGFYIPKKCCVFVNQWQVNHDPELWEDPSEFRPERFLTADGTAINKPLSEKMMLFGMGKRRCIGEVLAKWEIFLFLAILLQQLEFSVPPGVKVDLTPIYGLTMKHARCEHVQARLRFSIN
Briefly: Inhibition of CYP1A2 (unknown origin). It counts as ADME.

The nature of series [9]: Volume of distribution at steady state in Sprague-Dawley rat at 0.5 mg/kg, iv. The following applies: in vivo, read-out: Vdss. It counts as ADME, organism-based.
The nature of series [10]: Tmax in Sprague-Dawley rat at 3 mg/kg, po. It counts as ADME, organism-based. Particulars: in vivo.
The nature of series [11]: Plasma protein binding in mouse assessed as unbound fraction. It counts as ADME, cell-free.
A short description of series [12]: Solubility of compound at pH 7.4. It counts as physicochemical. Particulars: buffer.
Series [13] can be described thus: Cmax in CD1 mouse at 10 mg/kg, po. It counts as ADME, organism-based. Details: dose 10 mg/kg, route po. Particulars: in vivo.
Series [14] in a line: Oral bioavailability in Sprague-Dawley rat at 3 mg/kg. It counts as ADME, organism-based. The following applies: in vivo.
A short description of series [15]: AUC (0 to infinity) in CD1 mouse at 10 mg/kg, po. It counts as ADME, organism-based. Further details: dose 10 mg/kg, route po. Particulars: in vivo.
Series [16] is described as follows: Oral bioavailability in CD1 mouse at 10 mg/kg. It counts as ADME, organism-based. Particulars: in vivo.
A short description of series [17]: AUC in Sprague-Dawley rat at 0.5 mg/kg, iv. Particulars: in vivo. It counts as ADME, organism-based. Details: dose 0.5 mg/kg, route iv.
Series [18] is described as follows: Cmax in Sprague-Dawley rat at 3 mg/kg, po. Particulars: in vivo. It counts as ADME, organism-based. Further details: dose 3 mg/kg, route po.
Series [19] in a line: AUC (0 to infinity) in Sprague-Dawley rat at 3 mg/kg, po. It counts as ADME, organism-based. Further details: dose 3 mg/kg, route po. Particulars: in vivo.
Another series concerns the target Cytochrome P450 2D6 (Homo sapiens, UniProt P10635). The experiment in a line: Inhibition of CYP2D6 (unknown origin). It counts as ADME.
Series [20] is described as follows: Half life in Sprague-Dawley rat at 3 mg/kg, po. The following applies: in vivo. It counts as ADME, organism-based.
The target in a further series is Cytochrome P450 2C9 (Homo sapiens, UniProt P11712). The experiment in a line: Inhibition of CYP2C9 (unknown origin). It counts as ADME.
The nature of series [21]: Permeability of compound at pH 7.4 by PAMPA assay. It counts as ADME. The following applies: read-out: permeability. (In general: In PAMPA a lipid-coated filter parts donor from acceptor wells.)
Series [22] is described as follows: Permeability of the compound by PAMPA assay. It counts as ADME. Particulars: read-out: permeability.
In another series the target is T2, Glucocorticoid receptor (Homo sapiens, UniProt P04150).
T2 sequence (P04150 whole entry): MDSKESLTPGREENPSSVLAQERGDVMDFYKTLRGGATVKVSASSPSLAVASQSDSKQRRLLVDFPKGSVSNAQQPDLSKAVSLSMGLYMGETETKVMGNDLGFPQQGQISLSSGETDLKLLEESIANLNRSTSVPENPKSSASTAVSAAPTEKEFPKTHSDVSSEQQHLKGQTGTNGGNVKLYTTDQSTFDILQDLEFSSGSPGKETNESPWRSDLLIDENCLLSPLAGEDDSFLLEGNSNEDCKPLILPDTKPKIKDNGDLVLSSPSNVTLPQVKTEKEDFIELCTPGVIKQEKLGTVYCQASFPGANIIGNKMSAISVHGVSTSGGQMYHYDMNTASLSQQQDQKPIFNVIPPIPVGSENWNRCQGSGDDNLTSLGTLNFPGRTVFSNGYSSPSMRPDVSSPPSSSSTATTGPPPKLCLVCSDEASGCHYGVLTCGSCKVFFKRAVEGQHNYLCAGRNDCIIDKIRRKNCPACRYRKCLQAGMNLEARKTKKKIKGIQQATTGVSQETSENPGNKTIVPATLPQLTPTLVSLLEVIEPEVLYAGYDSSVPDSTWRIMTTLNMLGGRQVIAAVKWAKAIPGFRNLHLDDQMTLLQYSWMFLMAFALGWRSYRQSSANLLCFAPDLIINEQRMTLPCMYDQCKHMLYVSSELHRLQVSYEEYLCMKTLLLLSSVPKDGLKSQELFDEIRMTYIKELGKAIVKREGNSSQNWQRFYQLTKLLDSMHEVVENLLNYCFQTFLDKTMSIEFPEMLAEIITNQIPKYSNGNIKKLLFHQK
Briefly: Inhibition of glucocorticoid receptor (unknown origin).

Chain of Cytochrome P450 3A4 (P08684 whole entry): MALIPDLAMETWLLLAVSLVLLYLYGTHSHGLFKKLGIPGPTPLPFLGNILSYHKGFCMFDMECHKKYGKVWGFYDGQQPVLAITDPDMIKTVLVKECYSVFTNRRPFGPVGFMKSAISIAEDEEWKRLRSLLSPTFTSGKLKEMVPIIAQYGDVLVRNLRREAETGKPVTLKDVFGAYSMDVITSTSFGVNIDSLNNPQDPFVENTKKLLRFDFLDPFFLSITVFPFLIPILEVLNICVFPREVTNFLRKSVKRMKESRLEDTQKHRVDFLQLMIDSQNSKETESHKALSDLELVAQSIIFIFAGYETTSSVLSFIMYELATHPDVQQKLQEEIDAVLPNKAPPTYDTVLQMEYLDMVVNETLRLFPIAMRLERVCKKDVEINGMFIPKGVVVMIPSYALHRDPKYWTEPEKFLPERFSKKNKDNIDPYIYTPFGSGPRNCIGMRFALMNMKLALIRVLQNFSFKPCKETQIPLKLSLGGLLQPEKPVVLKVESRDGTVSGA
Chain of Cytochrome P450 2C9 (P11712 whole entry): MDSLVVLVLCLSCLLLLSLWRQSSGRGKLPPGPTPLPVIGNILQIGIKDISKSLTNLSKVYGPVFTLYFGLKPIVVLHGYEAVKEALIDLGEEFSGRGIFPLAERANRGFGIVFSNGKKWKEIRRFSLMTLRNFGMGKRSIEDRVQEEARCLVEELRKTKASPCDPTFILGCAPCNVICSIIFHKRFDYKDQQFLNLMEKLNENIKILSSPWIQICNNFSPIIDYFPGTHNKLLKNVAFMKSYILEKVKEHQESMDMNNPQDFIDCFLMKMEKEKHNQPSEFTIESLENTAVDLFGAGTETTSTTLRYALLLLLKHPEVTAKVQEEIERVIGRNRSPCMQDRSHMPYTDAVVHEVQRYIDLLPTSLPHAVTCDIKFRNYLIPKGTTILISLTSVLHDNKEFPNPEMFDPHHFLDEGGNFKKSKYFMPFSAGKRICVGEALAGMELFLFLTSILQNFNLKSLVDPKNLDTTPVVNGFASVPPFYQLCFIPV
Chain of Cytochrome P450 2D6 (P10635 whole entry): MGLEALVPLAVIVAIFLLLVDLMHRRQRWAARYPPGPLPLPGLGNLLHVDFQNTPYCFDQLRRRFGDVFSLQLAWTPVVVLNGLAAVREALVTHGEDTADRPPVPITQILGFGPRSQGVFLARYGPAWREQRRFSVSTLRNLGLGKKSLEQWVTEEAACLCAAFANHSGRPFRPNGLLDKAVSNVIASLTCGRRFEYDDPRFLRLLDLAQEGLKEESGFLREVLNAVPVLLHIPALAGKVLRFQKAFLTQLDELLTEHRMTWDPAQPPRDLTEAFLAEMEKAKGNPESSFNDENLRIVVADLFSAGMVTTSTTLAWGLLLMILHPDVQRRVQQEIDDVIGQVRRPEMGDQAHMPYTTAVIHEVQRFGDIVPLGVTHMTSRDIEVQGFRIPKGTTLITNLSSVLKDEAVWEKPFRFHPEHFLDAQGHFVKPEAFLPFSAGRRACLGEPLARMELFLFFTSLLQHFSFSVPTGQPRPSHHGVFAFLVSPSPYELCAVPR

As for `C[C@]12C=CC(=O)C=C1CC[C@@H]1[C@@H]2[C@@H](O)C[C@@]2(C)[C@H]1C[C@H]1O[C@@H](c3ccc(Cc4cccc(N)c4)cc3)O[C@]12C(=O)CO`, the IC50 against Cytochrome P450 3A4 was less than 0.02 µM; against Cytochrome P450 1A2, greater than 40 µM; against Cytochrome P450 2D6 it was greater than 40 µM; on Cytochrome P450 2C9, 18.4 µM. Also, the half-life is 3.56 h in series [1], 1.2 h in [2], 3.82 h in series [5] and 2.86 h in series [20]. The Vd in series [3] worked out at 2.91 L/kg; in series [9], 2.55 L/kg. The clearance is 37.8 mL/min/kg in series [4] and 14.2 mL/min/kg in [8]. Further, the values for the Tmax in series [6] and in series [10] were 1.42 h and 0.25 h, respectively. The AUC in [7] is 3580 ng·h/mL; in [15], 0.21 µg/h/mL; in [17], 220 ng·h/mL. The Fu in [11] is 0.01%. For the same compound, the concentration in solution in series [12] (solubility) was 1.33 µM (≈ 0.758 µg/mL). Besides, the figures for the maximum concentration (Cmax) in [13] and in series [18] were 40 ng/mL and 80 ng/mL, respectively. Moreover, the bioavailability is 16.8% in series [14] and 1% in series [16]. The AUC(0-inf) in series [19] was determined as 220 ng·h/mL. Also, in [21], the Papp was 0.2 ×10⁻⁶ cm/s.
With `C[C@]12C=CC(=O)C=C1CC[C@@H]1[C@@H]2[C@@H](O)C[C@@]2(C)[C@H]1C[C@H]1O[C@@H](c3ccc(CN4CCNCC4)cc3)O[C@]12C(=O)CO`, the Papp in [22] turned out to be 0.23 ×10⁻⁶ cm/s.
On the same count and under the same terms, to `C[C@]12C=CC(=O)C=C1[C@@H](F)C[C@H]1[C@@H]3C[C@H]4O[C@@H](c5ccc(CN6CCNCC6)cc5)O[C@@]4(C(=O)CO)[C@@]3(C)C[C@H](O)[C@@]12F` belongs 0.22 ×10⁻⁶ cm/s.
Take `C[C@]12C=CC(=O)C=C1CC[C@@H]1[C@@H]2[C@@H](O)C[C@@]2(C)[C@H]1C[C@H]1O[C@@H](C3CCCCC3)O[C@]12C(=O)CO` [DESISOBUTYRYLCICLESONIDE]: at Glucocorticoid receptor, the IC50 came out at 0.002 µM.
